In ChEMBL document CHEMBL1909046, “DrugMatrix in vitro pharmacology data”:
pIC50: −log10 of the molar value.

Columns and labels:
[1] = DRUGMATRIX: Sodium/nucleoside co-transporter radioligand binding (ligand: nitrobenzylthioinosine); assay type: cell membranes, Cavia porcellus, Dunkin-Hartley, Cerebral cortex, Membrane; conditions: Not Active = under 50% inhibition at 10 µM
B2 bradykinin receptor = molecular target: T1, B2 bradykinin receptor (Homo sapiens, UniProt P30411); assay type: cell membranes, Membrane; conditions: chem-1; further: in other assays of this panel Not Active means under 50% inhibition at 10 µM
T1 sequence (P30411 whole entry): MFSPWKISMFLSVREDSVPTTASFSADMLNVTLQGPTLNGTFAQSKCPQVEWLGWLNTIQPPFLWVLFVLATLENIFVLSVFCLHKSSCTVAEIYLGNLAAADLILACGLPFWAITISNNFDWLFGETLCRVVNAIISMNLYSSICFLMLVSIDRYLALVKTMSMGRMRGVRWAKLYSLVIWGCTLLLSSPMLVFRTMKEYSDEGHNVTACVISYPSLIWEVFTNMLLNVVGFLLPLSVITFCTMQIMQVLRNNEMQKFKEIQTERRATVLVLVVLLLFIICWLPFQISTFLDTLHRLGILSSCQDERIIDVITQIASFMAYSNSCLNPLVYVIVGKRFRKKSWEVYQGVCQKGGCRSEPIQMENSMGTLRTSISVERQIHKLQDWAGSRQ

Cannabinoid receptor 1 = Cannabinoid receptor 1 (Homo sapiens, UniProt P21554); assay type: cell membranes, Chem-1, Membrane; conditions: chem-1; further: in other assays of this panel Not Active means under 50% inhibition at 10 µM
[2] = DRUGMATRIX: GABAA, Chloride Channel, TBOB radioligand binding (ligand: [3H] TBOB); assay type: cell membranes, Rattus norvegicus, Wistar, Cerebral cortex, Membrane; conditions: Not Active = under 50% inhibition at 10 µM
[3] = DRUGMATRIX: Glutamate, AMPA radioligand binding (ligand: [3H] AMPA); assay type: cell membranes, Rattus norvegicus, Wistar, Cerebral cortex, Membrane; conditions: Not Active = under 50% inhibition at 10 µM
[4] = DRUGMATRIX: Phosphodiesterase PDE3 enzyme inhibition (substrate: [3H]cAMP + cAMP); assay type: tissue-based, Homo sapiens; conditions: platelet; Not Active = under 50% inhibition at 10 µM
[5] = molecular target: T2, Angiotensin-converting enzyme (Oryctolagus cuniculus, UniProt P12822); assay type: tissue-based, Lung;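 further: enzymatic inhibition of angiotensin-converting enzyme measured with FAPGG as the substrate; in other assays of this panel Not Active means under 50% inhibition at 10 µM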
T2 sequence (P12822 whole entry): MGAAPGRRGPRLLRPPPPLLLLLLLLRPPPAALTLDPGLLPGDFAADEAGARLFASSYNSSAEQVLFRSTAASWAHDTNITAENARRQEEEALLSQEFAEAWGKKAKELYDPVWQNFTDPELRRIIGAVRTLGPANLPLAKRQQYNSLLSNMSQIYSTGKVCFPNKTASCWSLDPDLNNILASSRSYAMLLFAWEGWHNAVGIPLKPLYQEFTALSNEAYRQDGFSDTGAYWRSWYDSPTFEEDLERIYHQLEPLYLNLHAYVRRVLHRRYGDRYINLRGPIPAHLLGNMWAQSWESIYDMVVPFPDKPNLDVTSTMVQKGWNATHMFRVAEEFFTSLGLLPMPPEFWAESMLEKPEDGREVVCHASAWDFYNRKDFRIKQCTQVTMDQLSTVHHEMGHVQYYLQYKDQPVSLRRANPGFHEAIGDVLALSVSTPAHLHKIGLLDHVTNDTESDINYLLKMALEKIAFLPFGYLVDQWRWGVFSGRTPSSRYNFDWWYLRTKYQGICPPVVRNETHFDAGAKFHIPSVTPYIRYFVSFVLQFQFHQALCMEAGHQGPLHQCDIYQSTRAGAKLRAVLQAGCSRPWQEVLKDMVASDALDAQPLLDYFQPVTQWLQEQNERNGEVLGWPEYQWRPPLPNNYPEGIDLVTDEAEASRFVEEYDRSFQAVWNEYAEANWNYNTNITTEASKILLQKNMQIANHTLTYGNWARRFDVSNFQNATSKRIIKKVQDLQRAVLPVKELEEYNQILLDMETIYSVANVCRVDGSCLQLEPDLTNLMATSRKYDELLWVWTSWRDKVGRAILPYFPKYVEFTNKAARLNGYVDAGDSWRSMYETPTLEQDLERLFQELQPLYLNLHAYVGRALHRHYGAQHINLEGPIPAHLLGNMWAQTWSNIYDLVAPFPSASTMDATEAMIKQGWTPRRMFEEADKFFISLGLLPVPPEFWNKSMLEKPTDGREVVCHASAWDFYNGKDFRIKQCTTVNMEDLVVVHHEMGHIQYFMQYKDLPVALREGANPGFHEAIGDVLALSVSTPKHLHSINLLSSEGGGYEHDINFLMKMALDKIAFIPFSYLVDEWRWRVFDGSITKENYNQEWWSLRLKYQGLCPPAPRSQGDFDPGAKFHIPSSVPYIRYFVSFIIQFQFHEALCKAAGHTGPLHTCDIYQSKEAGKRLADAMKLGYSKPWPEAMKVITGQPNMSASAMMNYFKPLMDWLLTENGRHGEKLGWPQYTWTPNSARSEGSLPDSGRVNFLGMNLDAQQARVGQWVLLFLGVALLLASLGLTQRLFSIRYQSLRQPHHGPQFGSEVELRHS

Caspase-1 = molecular target: T3, Caspase-1 (Homo sapiens, UniProt P29466); design: species or system Escherichia coli;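 further: Caspase-1 enzyme inhibition assay with a peptide substrate; in other assays of this panel Not Active means under 50% inhibition at 10 µM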
T3 sequence (P29466 whole entry): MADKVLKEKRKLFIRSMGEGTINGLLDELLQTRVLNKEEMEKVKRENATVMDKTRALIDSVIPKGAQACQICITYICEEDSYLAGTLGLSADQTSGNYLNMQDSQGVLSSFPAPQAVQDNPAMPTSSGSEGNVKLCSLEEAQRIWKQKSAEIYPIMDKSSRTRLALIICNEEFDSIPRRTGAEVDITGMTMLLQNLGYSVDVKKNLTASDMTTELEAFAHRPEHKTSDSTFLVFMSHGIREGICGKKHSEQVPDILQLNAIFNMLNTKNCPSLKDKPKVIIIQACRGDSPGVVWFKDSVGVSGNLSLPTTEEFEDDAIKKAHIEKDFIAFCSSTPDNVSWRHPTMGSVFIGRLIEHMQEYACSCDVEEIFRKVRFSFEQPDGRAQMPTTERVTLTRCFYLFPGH

[6] = molecular target: Epidermal growth factor receptor (Homo sapiens, UniProt P00533); test: DRUGMATRIX: Protein Tyrosine Kinase, EGF Receptor enzyme inhibition (substrate: Poly(Glu:Tyr)); assay type: cell-based, Insect cells; conditions: Not Active = under 50% inhibition at 10 µM; for IC50: insect cells
Epidermal growth factor receptor, sequence (P00533 whole entry): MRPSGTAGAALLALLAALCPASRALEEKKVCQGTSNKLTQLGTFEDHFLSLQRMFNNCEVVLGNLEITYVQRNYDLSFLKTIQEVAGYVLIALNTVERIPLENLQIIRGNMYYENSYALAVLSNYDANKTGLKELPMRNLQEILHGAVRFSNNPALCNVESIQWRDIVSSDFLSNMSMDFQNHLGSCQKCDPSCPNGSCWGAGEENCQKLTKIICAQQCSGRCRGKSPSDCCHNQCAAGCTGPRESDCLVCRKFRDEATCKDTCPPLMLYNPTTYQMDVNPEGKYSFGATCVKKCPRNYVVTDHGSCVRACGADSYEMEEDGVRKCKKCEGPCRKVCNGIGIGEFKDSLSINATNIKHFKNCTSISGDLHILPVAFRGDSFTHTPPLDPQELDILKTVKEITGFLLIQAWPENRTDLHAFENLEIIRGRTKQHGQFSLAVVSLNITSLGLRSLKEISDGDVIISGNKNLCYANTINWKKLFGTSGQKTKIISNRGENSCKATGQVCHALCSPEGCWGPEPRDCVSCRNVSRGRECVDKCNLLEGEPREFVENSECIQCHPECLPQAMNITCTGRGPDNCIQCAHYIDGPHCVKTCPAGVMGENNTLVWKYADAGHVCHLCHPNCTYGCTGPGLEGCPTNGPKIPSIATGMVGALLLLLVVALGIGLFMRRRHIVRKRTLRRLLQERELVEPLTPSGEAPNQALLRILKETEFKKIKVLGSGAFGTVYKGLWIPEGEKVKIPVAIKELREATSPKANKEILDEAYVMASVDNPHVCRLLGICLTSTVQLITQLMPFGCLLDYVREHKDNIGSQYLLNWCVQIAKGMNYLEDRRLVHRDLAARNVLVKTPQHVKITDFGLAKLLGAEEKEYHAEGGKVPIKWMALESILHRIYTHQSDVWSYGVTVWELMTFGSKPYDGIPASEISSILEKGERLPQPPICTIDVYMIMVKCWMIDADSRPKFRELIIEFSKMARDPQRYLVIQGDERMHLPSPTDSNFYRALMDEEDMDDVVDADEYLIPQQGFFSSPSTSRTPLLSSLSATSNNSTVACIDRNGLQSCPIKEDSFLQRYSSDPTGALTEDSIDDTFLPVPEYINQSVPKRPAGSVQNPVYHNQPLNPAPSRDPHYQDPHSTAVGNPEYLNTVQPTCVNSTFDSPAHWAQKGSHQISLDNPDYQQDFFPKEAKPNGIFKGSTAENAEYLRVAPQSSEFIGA

Cannabinoid receptor 1, sequence (P21554 whole entry): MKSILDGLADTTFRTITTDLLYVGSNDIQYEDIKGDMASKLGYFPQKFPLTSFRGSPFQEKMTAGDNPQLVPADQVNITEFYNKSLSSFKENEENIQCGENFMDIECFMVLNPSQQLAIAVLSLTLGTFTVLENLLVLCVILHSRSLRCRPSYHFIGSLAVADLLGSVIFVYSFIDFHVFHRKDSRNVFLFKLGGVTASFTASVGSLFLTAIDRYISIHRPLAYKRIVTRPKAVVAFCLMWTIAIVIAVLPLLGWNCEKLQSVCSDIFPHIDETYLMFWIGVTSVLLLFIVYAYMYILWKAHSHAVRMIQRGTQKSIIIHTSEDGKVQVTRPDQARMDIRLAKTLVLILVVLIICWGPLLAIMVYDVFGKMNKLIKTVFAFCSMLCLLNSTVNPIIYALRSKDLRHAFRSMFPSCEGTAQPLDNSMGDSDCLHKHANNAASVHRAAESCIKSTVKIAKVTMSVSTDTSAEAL

Structure (SMILES)	IC50 [1]	Ki [1]	IC50 (B2 bradykinin receptor)	IC50 (Cannabinoid receptor 1)	IC50 [2]	Ki [2]	IC50 [3]	Ki [3]	IC50 [4]	Ki [4]	IC50 [5]	IC50 (Caspase-1)	IC50 [6]	pIC50 ([6]; read-out: IC50)
CC(C)c1nc(CN(C)C(=O)N[C@H](C(=O)N[C@@H](Cc2ccccc2)C[C@H](O)[C@H](Cc2ccccc2)NC(=O)OCc2cncs2)C(C)C)cs1 [RITONAVIR]	Not Active	Not Active	Not Active	Not Active	Not Active	Not Active	Not Active	Not Active	Not Active	Not Active	Not Active	Not Active	Not Active	
CC(C)CC(N(C)C)C1(c2ccc(Cl)cc2)CCC1 (configuration not stated) [SIBUTRAMINE]	Not Active	Not Active	Not Active	Not Active	Not Active	Not Active	Not Active	Not Active	Not Active	Not Active	Not Active	Not Active	Not Active	
[H]/N=C(/N)N[C@H]1[C@H](O)[C@@H](O)[C@H](O[C@@H]2O[C@@H](C)[C@](O)(C=O)[C@H]2O[C@@H]2O[C@@H](CO)[C@H](O)[C@@H](O)[C@@H]2NC)[C@@H](N/C(N)=N\[H])[C@@H]1O [STREPTOMYCIN]	Not Active	Not Active	Not Active	Not Active	Not Active	Not Active	Not Active	Not Active	Not Active	Not Active	Not Active	Not Active	Not Active	
COc1cc(NS(=O)(=O)c2ccc(N)cc2)nc(OC)n1 [SULFADIMETHOXINE]	Not Active	Not Active	Not Active	Not Active	Not Active	Not Active	Not Active	Not Active	Not Active	Not Active	Not Active	Not Active	Not Active	
Cc1cc(C)nc(NS(=O)(=O)c2ccc(N)cc2)n1 [SULFAMETHAZINE]	Not Active	Not Active	Not Active	Not Active	Not Active	Not Active	Not Active	Not Active	Not Active	Not Active	Not Active	Not Active	Not Active	
C[C@]1(Cn2ccnn2)[C@H](C(=O)O)N2C(=O)C[C@H]2S1(=O)=O [TAZOBACTAM]	Not Active	Not Active	Not Active	Not Active	Not Active	Not Active	Not Active	Not Active	Not Active	Not Active	Not Active	Not Active	Not Active	
CN1C(C(=O)Nc2ccccn2)=C(O)c2sccc2S1(=O)=O [TENOXICAM]	Not Active	Not Active	Not Active	Not Active	Not Active	Not Active	Not Active	Not Active	Not Active	Not Active	Not Active	Not Active	Not Active	
CC(C)(C)c1ccc(C(O)CCCN2CCC(C(O)(c3ccccc3)c3ccccc3)CC2)cc1 (configuration not stated) [TERFENADINE]	Not Active	Not Active	Not Active	Not Active	Not Active	Not Active	Not Active	Not Active	Not Active	Not Active	Not Active	Not Active		5.45
O=C1CCC(N2C(=O)c3ccccc3C2=O)C(=O)N1 (configuration not stated) [THALIDOMIDE]	Not Active	Not Active	Not Active	Not Active	Not Active	Not Active	Not Active	Not Active	Not Active	Not Active	Not Active	Not Active	Not Active	
